Data published in PubChem BioAssay AID248 (DTP/NCI, 2004).
Values joined by “and” are separate entries in the source; they are usually repeats but may differ in a detail not shown here. Equal values may be shown once. Inconclusive results and toxic doses are left out.

System: L1210 leukemia ip in BDF1 mice, survival T/C
Assay: NCI In Vivo Anticancer Drug Screen. Data for tumor model L1210 Leukemia (intraperitoneal) in B6D2F1 (BDF1) mice
Details: higher = longer survival
In short: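 Antitumor effect is assessed in tumor-bearing animals. Survival in the compound arm is compared with a vehicle-dosed control arm and expressed as their quotient.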

[1] = endpoint: mean survival time, dose: 100.0 mg/kg/injection, schedule: Q01DX009 (ip), vehicle: Klucel (hydroxypropylcellulose) (HPC)
[2] = endpoint: mean survival time, dose: 200.0 mg/kg/injection, schedule: Q01DX009 (ip), vehicle: Klucel (hydroxypropylcellulose) (HPC)
[3] = endpoint: mean survival time, dose: 400.0 mg/kg/injection, schedule: Q01DX009 (ip), vehicle: Klucel (hydroxypropylcellulose) (HPC)
[4] = endpoint: mean survival time, dose: 100.0 mg/kg/injection, schedule: Q01DX001 (ip), vehicle: other
[5] = endpoint: mean survival time, dose: 200.0 mg/kg/injection, schedule: Q01DX001 (ip), vehicle: carboxymethylcellulose (CMC)
[6] = endpoint: mean survival time, dose: 400.0 mg/kg/injection, schedule: Q01DX001 (ip), vehicle: other
[7] = endpoint: mean survival time, dose: 100.0 mg/kg/injection, schedule: Q01DX001 (ip), vehicle: saline with Tween-80
[8] = endpoint: mean survival time, dose: 200.0 mg/kg/injection, schedule: Q01DX001 (ip), vehicle: saline with Tween-80
[9] = endpoint: mean survival time, dose: 100.0 mg/kg/injection, schedule: Q04DX003 (ip), vehicle: Klucel (hydroxypropylcellulose) (HPC)
[10] = endpoint: mean survival time, dose: 200.0 mg/kg/injection, schedule: Q04DX003 (ip), vehicle: Klucel (hydroxypropylcellulose) (HPC)
[11] = endpoint: mean survival time, dose: 400.0 mg/kg/injection, schedule: Q04DX003 (ip), vehicle: Klucel (hydroxypropylcellulose) (HPC)
[12] = endpoint: mean survival time, dose: 100.0 mg/kg/injection, schedule: Q01DX009 (ip), vehicle: saline with Tween-80
[13] = endpoint: mean survival time, dose: 100.0 mg/kg/injection, schedule: Q04DX003 (ip), vehicle: saline with Tween-80
[14] = endpoint: mean survival time, dose: 200.0 mg/kg/injection, schedule: Q01DX009 (ip), vehicle: saline with Tween-80
[15] = endpoint: mean survival time, dose: 200.0 mg/kg/injection, schedule: Q04DX003 (ip), vehicle: saline with Tween-80
[16] = endpoint: mean survival time, dose: 400.0 mg/kg/injection, schedule: Q04DX003 (ip), vehicle: saline with Tween-80

With `CC(OC(C)c1ccccc1)c1ccccc1` (centres undefined) the T/C [1] was 96 % of control, the T/C [2] was 105 % of control and the T/C [3] was 101 % of control.
With `CCCCN(C)/N=N/c1nc[nH]c1C(N)=O` the T/C (endpoint: mean survival time, dose: 4.0 mg/kg/injection, schedule: Q01DX009 (ip), vehicle: other) was 111 % of control, the T/C (endpoint: mean survival time, dose: 7.0 mg/kg/injection, schedule: Q01DX009 (ip), vehicle: other) was 111 % of control and the T/C (endpoint: mean survival time, dose: 12.25 mg/kg/injection, schedule: Q01DX009 (ip), vehicle: saline with Tween-80) was 117 % of control. For the same compound, the T/C (endpoint: mean survival time, dose: 17.6 mg/kg/injection, schedule: Q01DX009 (ip), vehicle: carboxymethylcellulose (CMC)) was 109 % of control, the T/C (endpoint: mean survival time, dose: 20.0 mg/kg/injection, schedule: Q01DX Z (ip), vehicle: carboxymethylcellulose (CMC)) was 124 % of control and the T/C (endpoint: mean survival time, dose: 26.0 mg/kg/injection, schedule: Q01DX009 (ip), vehicle: carboxymethylcellulose (CMC)) was 120 % of control. The T/C (endpoint: mean survival time, dose: 36.0 mg/kg/injection, schedule: Q01DX009 (ip), vehicle: other) was 168 % of control, the T/C (endpoint: mean survival time, dose: 36.7 mg/kg/injection, schedule: Q04DX003 (ip), vehicle: saline with Tween-80) was 117 % of control and the T/C (endpoint: mean survival time, dose: 40.0 mg/kg/injection, schedule: Q01DX009 (ip), vehicle: carboxymethylcellulose (CMC)) was 124 % of control. The T/C (endpoint: mean survival time, dose: 40.0 mg/kg/injection, schedule: Q01DX Z (ip), vehicle: carboxymethylcellulose (CMC)) was 164 % of control, the T/C (endpoint: mean survival time, dose: 49.0 mg/kg/injection, schedule: Q01DX009 (ip), vehicle: saline with Tween-80) was 153 % of control and the T/C (endpoint: mean survival time, dose: 53.0 mg/kg/injection, schedule: Q01DX001 (ip), vehicle: saline with Tween-80) was 107 % of control. For the same compound, the T/C (endpoint: mean survival time, dose: 60.0 mg/kg/injection, schedule: Q01DX009 (ip), vehicle: other) was 154 % of control, the T/C (endpoint: mean survival time, dose: 73.5 mg/kg/injection, schedule: Q04DX003 (ip), vehicle: saline with Tween-80) was 122 % of control and the T/C (endpoint: mean survival time, dose: 80.0 mg/kg/injection, schedule: Q01DX Z (ip), vehicle: carboxymethylcellulose (CMC)) was 158 % of control. For the same compound, the T/C (endpoint: mean survival time, dose: 88.0 mg/kg/injection, schedule: Q01DX001 (ip), vehicle: carboxymethylcellulose (CMC)) was 103 % of control, the T/C (endpoint: mean survival time, dose: 88.0 mg/kg/injection, schedule: Q01DX001 (ip), vehicle: other) was 121 % of control and the T/C [4] was 119 % of control. For the same compound, the T/C (endpoint: mean survival time, dose: 100.0 mg/kg/injection, schedule: Q01DX009 (ip), vehicle: other) was 90 % of control, the T/C (endpoint: mean survival time, dose: 106.0 mg/kg/injection, schedule: Q01DX001 (ip), vehicle: saline with Tween-80) was 119 % of control and the T/C (endpoint: mean survival time, dose: 120.0 mg/kg/injection, schedule: Q01DX Z (ip), vehicle: carboxymethylcellulose (CMC)) was 101 % of control. For the same compound, the T/C (endpoint: mean survival time, dose: 133.0 mg/kg/injection, schedule: Q01DX001 (ip), vehicle: carboxymethylcellulose (CMC)) was 103 % of control, the T/C (endpoint: mean survival time, dose: 147.0 mg/kg/injection, schedule: Q04DX003 (ip), vehicle: saline with Tween-80) was 153 % of control and the T/C (endpoint: mean survival time, dose: 160.0 mg/kg/injection, schedule: Q01DX009 (ip), vehicle: carboxymethylcellulose (CMC)) was 98 % of control. For the same compound, the T/C [5] was 106 % of control, the T/C [6] was 122 % of control and the T/C (endpoint: median survival time, dose: 10.0 mg/kg/injection, schedule: Q01DX009 (ip), vehicle: steriod suspending solution) was 116 % of control. For the same compound, the T/C (endpoint: median survival time, dose: 20.0 mg/kg/injection, schedule: Q01DX009 (ip), vehicle: steriod suspending solution) was 122 % of control, the T/C (endpoint: median survival time, dose: 40.0 mg/kg/injection, schedule: Q01DX009 (ip), vehicle: steriod suspending solution) was 150 % of control and 155 % of control and the T/C (endpoint: median survival time, dose: 80.0 mg/kg/injection, schedule: Q01DX009 (ip), vehicle: steriod suspending solution) was 155 % of control and 166 % of control. The T/C (endpoint: median survival time, dose: 160.0 mg/kg/injection, schedule: Q01DX009 (ip), vehicle: steriod suspending solution) was 100 % of control.
In the case of `CCCCCCCc1nc2nn[nH]c(=O)c2[nH]1`, the T/C [7] is reported as 94 % of control, the T/C [8] is reported as 100 % of control and the T/C (endpoint: mean survival time, dose: 400.0 mg/kg/injection, schedule: Q01DX001 (ip), vehicle: saline with Tween-80) is reported as 90 % of control.
`Cc1cccc(CN2C(=O)c3ccccc3C2=O)c1` was tested, and the T/C (endpoint: mean survival time, dose: 100.0 mg/kg/injection, schedule: Q01DX001 (ip), vehicle: Klucel (hydroxypropylcellulose) (HPC)) was 100 % of control, the T/C (endpoint: mean survival time, dose: 200.0 mg/kg/injection, schedule: Q01DX001 (ip), vehicle: Klucel (hydroxypropylcellulose) (HPC)) was 103 % of control and the T/C (endpoint: mean survival time, dose: 400.0 mg/kg/injection, schedule: Q01DX001 (ip), vehicle: Klucel (hydroxypropylcellulose) (HPC)) was 102 % of control.
`OCCNc1nc2cc(Cl)ccc2c2ccc(Cl)cc12` was tested, and the T/C [1] was 91 % of control, the T/C [9] was 96 % of control and the T/C [2] was 99 % of control. The T/C [10] was 93 % of control and the T/C [11] was 96 % of control.
With `Nc1ccc(CCc2ccc(S(=O)(=O)F)cc2)cc1` the T/C (endpoint: mean survival time, dose: 100.0 mg/kg/injection, schedule: Q01DX001 (ip), vehicle: saline) was 108 % of control, the T/C (endpoint: mean survival time, dose: 200.0 mg/kg/injection, schedule: Q01DX001 (ip), vehicle: saline) was 103 % of control and the T/C (endpoint: mean survival time, dose: 400.0 mg/kg/injection, schedule: Q01DX001 (ip), vehicle: saline) was 102 % of control.
For `OC1OC(COCc2ccccc2)C(OCc2ccccc2)C1OCc1ccccc1` (centres undefined), the T/C [7] was 95 % of control and the T/C [8] was 95 % of control.
`O=C(CCCCC(=O)c1ccc(O)cc1O)c1ccc(O)cc1O` was tested, and the T/C [4] was 97 % of control, the T/C (endpoint: mean survival time, dose: 100.0 mg/kg/injection, schedule: Q04DX003 (ip), vehicle: other) was 103 % of control and the T/C (endpoint: mean survival time, dose: 200.0 mg/kg/injection, schedule: Q01DX001 (ip), vehicle: other) was 95 % of control. The T/C (endpoint: mean survival time, dose: 200.0 mg/kg/injection, schedule: Q04DX003 (ip), vehicle: other) was 100 % of control, the T/C [6] was 97 % of control and the T/C (endpoint: mean survival time, dose: 400.0 mg/kg/injection, schedule: Q04DX003 (ip), vehicle: other) was 106 % of control.
`NC(=O)c1nc2n(c1N)CCC2` was tested, and the T/C [12] was 108 % of control, the T/C [13] was 97 % of control and the T/C [14] was 110 % of control. For the same compound, the T/C [15] was 100 % of control, the T/C (endpoint: mean survival time, dose: 400.0 mg/kg/injection, schedule: Q01DX009 (ip), vehicle: saline with Tween-80) was 105 % of control and the T/C [16] was 94 % of control.
For `COP(=O)(OC)C(OC(=O)C(C)C)=C(C)C`, the T/C [13] was 112 % of control, the T/C [15] was 110 % of control and the T/C [16] was 102 % of control.
With `Clc1nc(Cl)c(Cl)c(C(Cl)(Cl)Cl)n1` the T/C (endpoint: mean survival time, dose: 25.0 mg/kg/injection, schedule: Q01DX009 (ip), vehicle: saline with Tween-80) was 101 % of control, the T/C (endpoint: mean survival time, dose: 50.0 mg/kg/injection, schedule: Q01DX009 (ip), vehicle: saline with Tween-80) was 92 % of control and the T/C [12] was 87 % of control. For the same compound, the T/C [14] was 86 % of control.
With `CCOC(CN1CCOCC1)c1ccccc1` (centres undefined) the T/C (endpoint: mean survival time, dose: 50.0 mg/kg/injection, schedule: Q01DX001 (ip), vehicle: carboxymethylcellulose (CMC)) was 100 % of control, the T/C (endpoint: mean survival time, dose: 50.0 mg/kg/injection, schedule: Q01DX009 (ip), vehicle: carboxymethylcellulose (CMC)) was 93 % of control and 92 % of control and the T/C (endpoint: mean survival time, dose: 50.0 mg/kg/injection, schedule: Q04DX003 (ip), vehicle: carboxymethylcellulose (CMC)) was 102 % of control. The T/C (endpoint: mean survival time, dose: 100.0 mg/kg/injection, schedule: Q01DX001 (ip), vehicle: carboxymethylcellulose (CMC)) was 99 % of control, the T/C (endpoint: mean survival time, dose: 100.0 mg/kg/injection, schedule: Q01DX009 (ip), vehicle: carboxymethylcellulose (CMC)) was 109 % of control and 91 % of control and the T/C (endpoint: mean survival time, dose: 100.0 mg/kg/injection, schedule: Q04DX002 (ip), vehicle: carboxymethylcellulose (CMC)) was 103 % of control and 105 % of control. For the same compound, the T/C (endpoint: mean survival time, dose: 100.0 mg/kg/injection, schedule: Q04DX003 (ip), vehicle: carboxymethylcellulose (CMC)) was 107 % of control, the T/C [5] was 100 % of control and the T/C (endpoint: mean survival time, dose: 200.0 mg/kg/injection, schedule: Q01DX009 (ip), vehicle: carboxymethylcellulose (CMC)) was 106 % of control and 88 % of control. For the same compound, the T/C (endpoint: mean survival time, dose: 200.0 mg/kg/injection, schedule: Q04DX002 (ip), vehicle: carboxymethylcellulose (CMC)) was 106 % of control and 113 % of control and the T/C (endpoint: mean survival time, dose: 200.0 mg/kg/injection, schedule: Q04DX003 (ip), vehicle: carboxymethylcellulose (CMC)) was 104 % of control.
`CCCCCCCCN(c1ccc(C#N)cc1)S(=O)(=O)c1ccc(C)cc1` was tested, and the T/C (endpoint: mean survival time, dose: 75.0 mg/kg/injection, schedule: Q01DX009 (ip), vehicle: Klucel (hydroxypropylcellulose) (HPC)) was 92 % of control, the T/C (endpoint: mean survival time, dose: 150.0 mg/kg/injection, schedule: Q01DX009 (ip), vehicle: Klucel (hydroxypropylcellulose) (HPC)) was 87 % of control and the T/C (endpoint: mean survival time, dose: 300.0 mg/kg/injection, schedule: Q01DX009 (ip), vehicle: Klucel (hydroxypropylcellulose) (HPC)) was 97 % of control.
`CC(=O)CC(=O)Nc1cc(C)c(NC(=O)CC(C)=O)cc1C` was tested, and the T/C [1] was 95 % of control, the T/C [9] was 98 % of control and the T/C [2] was 93 % of control. For the same compound, the T/C [10] was 96 % of control, the T/C [3] was 103 % of control and the T/C [11] was 98 % of control.
